According to patent US6476019B1, “Spirocyclic ligands for sigma receptors, and libraries and methods of use thereof” (Sepracor Inc., priority 1999, dated 2002):
≈ marks a conversion by molar mass, not a printed value. Read-outs that look alike come from different tables or passages of the source.

Key:
Protein Synthesis = assay: Safety Assessment: Protein Synthesis
[1] = molecular target: T1, sigma-1 receptor (guinea pig brain) (Cavia porcellus, UniProt Q60492); assay: Antagonism of haloperidol binding to guinea pig sigma-1 receptors; conditions: sigma-1, guinea pig brain; for % Inhibition: test concentration not given
T1 construct: from tissue; host or cells: guinea pig brain

RedOx State = assay: Safety Assessment: RedOx State
CYP2D6 = CYP2D6 (Homo sapiens, UniProt P10635); assay: In Vitro Metabolism (isozymes of P450) CYP2D6
Permeability = assay type: in vitro ADME; conditions: not told; read-out: Permeability PupperX10^6 cm/s
CYP2C19 = CYP2C19 (Homo sapiens, UniProt P33261); assay: In Vitro Metabolism (isozymes of P450) CYP2C19
DNA Synthesis = assay: Safety Assessment: DNA Synthesis
CYP1A2 = molecular target: T2, CYP1A2 (Homo sapiens, UniProt P05177); assay: In Vitro Metabolism (isozymes of P450) CYP1A2
T2 sequence (P05177 1-516): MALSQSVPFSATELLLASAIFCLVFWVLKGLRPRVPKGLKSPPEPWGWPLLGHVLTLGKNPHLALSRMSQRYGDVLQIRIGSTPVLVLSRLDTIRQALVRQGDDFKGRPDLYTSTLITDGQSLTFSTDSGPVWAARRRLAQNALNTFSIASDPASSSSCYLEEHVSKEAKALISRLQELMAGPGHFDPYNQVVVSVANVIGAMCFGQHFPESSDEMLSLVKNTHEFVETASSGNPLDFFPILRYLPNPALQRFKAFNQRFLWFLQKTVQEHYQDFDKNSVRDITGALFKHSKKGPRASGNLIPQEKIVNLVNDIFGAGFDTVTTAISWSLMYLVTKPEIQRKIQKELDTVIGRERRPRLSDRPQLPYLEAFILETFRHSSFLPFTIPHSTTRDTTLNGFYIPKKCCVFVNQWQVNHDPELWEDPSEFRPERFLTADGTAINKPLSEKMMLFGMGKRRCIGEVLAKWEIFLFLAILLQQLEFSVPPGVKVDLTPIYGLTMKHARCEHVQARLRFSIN

sigma-2 = sigma-2 (Rattus norvegicus, UniProt Q5U3Y7); assay: Behavioral receptor assays: sigma-2; assay type: binding; conditions: read-out: Receptors (IC50) sigma-2
Description: (§1) Various compounds of the present invention (19, 31, and 32) were evaluated in a group of assays based on mammalian cellular receptors associated with behavior. The group consisted of assays base on human dopamine D1, D2L, D3, D4.2, D4.4, D4.7, and D5 receptors, and the transporter; human serotonin 5-HT1A, 5-HT1B, 5-HT1D, 5-HT2A, 5-HT2B, 5-HT2C, 5-HT3, 5-HT5A, 5-HT6, and 5-HT7 receptors, and the human serotonin transporter; guinea pig 5-HT4 and sigma-1 receptors; rat sigma-2 and muscarinic receptors; and human NK1-3 receptors. The following table presents a subset of the results of these assays.

Membrane Integrity = assay: Safety Assessment: Membrane Integrity
human sigma receptor = human sigma receptor (Homo sapiens, UniProt Q99720); assay: Human sigma receptor assay; assay type: binding; conditions: read-out: IC50 Against Human Sigma Receptor
Description: (§2) The ability of test compounds to displace sigma ligands in vitro was determined by the methods of de Costa et al. (FEBS Lett. 251:53 (1989)) and De Haven-Hudkine et al. (Eur. J. Pharmacol. 227:372 (1992)) having guinea pig as a receptor source. Whereas, the methods of Gamapatju et al. (J. Pharm.&Exp. 289:251 (1999)) were utilized for human sigma receptors.

Caspase-3 = assay: Safety Assessment: Caspase-3 Induction
CYP3A4 = CYP3A4 (Homo sapiens, UniProt P08684); assay: In Vitro Metabolism (isozymes of P450) CYP3A4
Cell Viability = assay: Safety Assessment: Cell Viability
sigma-1 receptors = sigma-1 receptors (Cavia porcellus, UniProt Q60492); assay: Behavioral receptor assays: sigma-1; assay type: binding; conditions: guinea pig
Description: as §1

[2] = molecular target: T3, guinea pig sigma receptor (Cavia porcellus, UniProt Q60492); assay: Guinea pig sigma receptor assay; assay type: binding; conditions: read-out: IC50 Against Guinea Pig Sigma Receptor
T3 construct: having guinea pig as a receptor source; from tissue; host or cells: guinea pig
Description: as §2

GSH Level = assay: Safety Assessment: GSH Level
[3] = Pharmacokinetics in a single rat; assay type: in vivo; conditions: for concentration at 4 h: brain, 4 h post dose, read-out: Brain Tissue Distribution (4 h post dose, ng/g tissue); for concentration at 4 h / clearance / AUC(0-t): iv; for concentration at 4 h / AUC(0-t) / T1/2α / T1/2β: rat; for clearance / AUC(0-t): plasma; for clearance / Vb / Vc: rat (270 g); for AUC(0-t): read-out: AUC0-4h
Description: Pharmacokinetic properties of the compounds were evaluated in a single rat after dosing 4 and 5 mg/kg, respectively. The dose was well tolerated by the animal. The data below is based on a 270 g rat. Numerous time points were taken during a 4 hour period where a 0.1 mL volume of plasma was transferred to a 1.4 mL polypropylene vial and 0.4 mL of chilled methanol (0° C.) was added. The resulting percipitate was centrifuged at 7000 rpm at 4° C. for 5 min. The resulting supernatant was analysed by HPLC using a sample volume of 0.05 mL alongside standard solutions prepared by “spiking” known amounts of the compounds into the control plasma. Standard solution of the compounds were prepared in methanol.

CYP2C9 = CYP2C9 (Homo sapiens, UniProt P11712); assay: In Vitro Metabolism (isozymes of P450) CYP2C9
Sequence of CYP2C9 (P11712 whole entry): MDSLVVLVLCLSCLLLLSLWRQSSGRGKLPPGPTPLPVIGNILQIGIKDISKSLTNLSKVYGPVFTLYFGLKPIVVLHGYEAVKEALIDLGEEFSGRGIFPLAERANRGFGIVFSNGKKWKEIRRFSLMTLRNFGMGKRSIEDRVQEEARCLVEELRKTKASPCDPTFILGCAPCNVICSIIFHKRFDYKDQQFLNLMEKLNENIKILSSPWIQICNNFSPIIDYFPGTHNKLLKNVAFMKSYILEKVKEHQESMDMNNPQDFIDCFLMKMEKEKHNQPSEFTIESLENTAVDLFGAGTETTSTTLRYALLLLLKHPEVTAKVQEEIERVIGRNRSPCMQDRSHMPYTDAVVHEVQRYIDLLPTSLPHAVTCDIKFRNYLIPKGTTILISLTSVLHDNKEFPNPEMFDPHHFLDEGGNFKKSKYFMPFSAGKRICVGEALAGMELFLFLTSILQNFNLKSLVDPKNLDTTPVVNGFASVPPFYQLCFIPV

T1 sequence (Q60492 whole entry): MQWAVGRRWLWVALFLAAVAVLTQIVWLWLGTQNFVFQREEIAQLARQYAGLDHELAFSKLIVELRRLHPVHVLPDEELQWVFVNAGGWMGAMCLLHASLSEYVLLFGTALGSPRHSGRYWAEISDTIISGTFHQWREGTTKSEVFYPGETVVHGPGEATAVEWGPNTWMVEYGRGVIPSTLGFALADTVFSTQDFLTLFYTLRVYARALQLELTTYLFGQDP
Sequence of human sigma receptor (Q99720 whole entry): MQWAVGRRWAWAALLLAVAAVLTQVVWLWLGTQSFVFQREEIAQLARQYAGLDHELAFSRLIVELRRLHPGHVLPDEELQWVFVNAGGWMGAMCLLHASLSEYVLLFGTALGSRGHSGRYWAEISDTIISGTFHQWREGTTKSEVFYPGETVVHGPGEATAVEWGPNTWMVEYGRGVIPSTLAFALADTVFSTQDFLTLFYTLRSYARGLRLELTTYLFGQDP
Sequence of CYP3A4 (P08684 whole entry): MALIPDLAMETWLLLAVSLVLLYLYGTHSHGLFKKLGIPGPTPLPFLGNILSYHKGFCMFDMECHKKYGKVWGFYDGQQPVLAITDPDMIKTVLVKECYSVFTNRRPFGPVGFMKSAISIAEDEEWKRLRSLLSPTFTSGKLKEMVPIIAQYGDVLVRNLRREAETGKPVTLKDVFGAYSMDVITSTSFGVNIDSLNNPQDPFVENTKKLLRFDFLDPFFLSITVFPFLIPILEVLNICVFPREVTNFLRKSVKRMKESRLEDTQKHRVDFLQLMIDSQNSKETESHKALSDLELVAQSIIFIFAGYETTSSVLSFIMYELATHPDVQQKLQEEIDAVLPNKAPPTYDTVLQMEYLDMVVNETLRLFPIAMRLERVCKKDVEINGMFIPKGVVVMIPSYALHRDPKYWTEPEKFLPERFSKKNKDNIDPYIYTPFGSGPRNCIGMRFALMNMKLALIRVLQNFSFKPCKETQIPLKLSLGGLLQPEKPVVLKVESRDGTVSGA
Sequence of CYP2D6 (P10635 whole entry): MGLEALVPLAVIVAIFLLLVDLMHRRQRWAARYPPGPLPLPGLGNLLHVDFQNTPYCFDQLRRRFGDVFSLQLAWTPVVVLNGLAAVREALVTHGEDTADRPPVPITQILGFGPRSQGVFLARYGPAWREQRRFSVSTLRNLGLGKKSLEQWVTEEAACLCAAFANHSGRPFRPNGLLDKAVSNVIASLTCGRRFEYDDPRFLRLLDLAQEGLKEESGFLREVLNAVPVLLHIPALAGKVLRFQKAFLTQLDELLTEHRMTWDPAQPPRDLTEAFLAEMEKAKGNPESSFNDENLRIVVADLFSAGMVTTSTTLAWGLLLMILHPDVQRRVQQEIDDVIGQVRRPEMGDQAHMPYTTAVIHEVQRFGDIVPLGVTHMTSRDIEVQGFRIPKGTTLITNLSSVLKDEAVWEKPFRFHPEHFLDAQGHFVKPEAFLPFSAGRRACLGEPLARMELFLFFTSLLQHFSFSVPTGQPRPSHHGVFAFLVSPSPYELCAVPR
T3 sequence (Q60492 whole entry): as the sequence (Q60492 whole entry) above
Sequence of sigma-1 receptors (Q60492 whole entry): as above
Sequence of CYP2C19 (P33261 whole entry): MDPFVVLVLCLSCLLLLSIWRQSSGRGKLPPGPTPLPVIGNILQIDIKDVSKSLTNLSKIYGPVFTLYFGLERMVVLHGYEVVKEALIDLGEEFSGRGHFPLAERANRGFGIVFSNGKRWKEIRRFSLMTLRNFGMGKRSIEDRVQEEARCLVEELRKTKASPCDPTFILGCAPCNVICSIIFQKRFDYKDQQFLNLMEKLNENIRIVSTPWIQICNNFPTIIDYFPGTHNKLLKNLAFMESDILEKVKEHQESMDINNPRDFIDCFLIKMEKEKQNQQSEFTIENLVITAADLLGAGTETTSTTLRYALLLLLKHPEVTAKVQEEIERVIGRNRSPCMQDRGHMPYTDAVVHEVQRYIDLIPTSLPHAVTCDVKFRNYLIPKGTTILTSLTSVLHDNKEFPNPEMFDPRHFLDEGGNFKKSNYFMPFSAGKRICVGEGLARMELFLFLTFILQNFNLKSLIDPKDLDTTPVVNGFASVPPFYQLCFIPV
Sequence of sigma-2 (Q5U3Y7 whole entry): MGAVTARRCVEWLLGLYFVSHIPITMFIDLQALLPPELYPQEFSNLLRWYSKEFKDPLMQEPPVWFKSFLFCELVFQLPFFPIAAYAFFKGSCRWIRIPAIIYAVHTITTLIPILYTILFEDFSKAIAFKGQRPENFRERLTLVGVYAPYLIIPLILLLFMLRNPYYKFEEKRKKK

Log D7.5 (Log D7.5) | IC50 [1] [nM] | % Inhibition [1] [%] | CYP2D6 (CYP2D6) [% inhibition] | Papp (Permeability) [×10⁻⁶ cm/s] | CYP2C19 (CYP2C19) [% inhibition] | CYP1A2 (CYP1A2) [% inhibition] | IC50 (sigma-2) [nM] | IC50 (human sigma receptor) [nM] | CYP3A4 (CYP3A4) [% inhibition] | IC50 (sigma-1 receptors) [nM] | IC50 [2] [nM] | Metabolic Stability (% parent remaining) (Metabolic Stability) | SMILES | Protein Synthesis (Protein Synthesis) [% inhibition] | RedOx State (RedOx State) [% inhibition] | DNA Synthesis (DNA Synthesis) [% inhibition] | Membrane Integrity (Membrane Integrity) [% inhibition] | Caspase-3 Induction % Induction (Caspase-3) [% Induction] | Cell Viability (Cell Viability) [% inhibition] | GSH Level (% Control) (GSH Level) | other results
3.7 | < 10 | >50 | 102 | 22.4 | 42 | 20 | < 1000 | < 100 | 67 | < 10 | < 10 | 1 | OC1CCC2(CCN(Cc3ccc(F)cc3)CC2)Nc2ccccc21 (racemic) [Compound 32, 1′-(4-fluorobenzyl)-3,4-dihydrospiro[5H-1-benzazepine-2(1H)-4′-piperidin]-5ol] | <10 | 17 | <10 | <10 | <10 | <10 | <10 | fraction unbound (Protein Binding): < 0.01; concentration at 4 h ([3]; 5 mg/kg i.v.): 134 ng/g; clearance ([3]; 5 mg/kg i.v.): 31.7 mL/min; AUC(0-t) ([3]; 5 mg/kg i.v., 10% hydroxypropyl-p-cyclodextrin): 700 ng·h/mL; Vb ([3]; 5 mg/kg i.v.): 42 L; Vc ([3]; 5 mg/kg i.v.): 1.1 L; T1/2α ([3]; 5 mg/kg i.v.): 12.6 min; T1/2β ([3]; 5 mg/kg i.v.): 120 min; solubility (Solubility): 83 µM (≈ 28.3 µg/mL); CYP2C9 (CYP2C9): 11 % inhibition
2.19 | < 10 | >50 | 44 | 22.9 | 28 | <10 | < 1000 | < 100 | 22 | < 10 | < 10 | 44 | O=C1CCC2(CCN(Cc3ccc(F)cc3)CC2)Nc2ccccc21 [Compound 31, 1′-(4-fluorobenzyl)-3,4-dihydrospiro[5H-1-benzazepine-2(1H)-4′-piperidin]-5-one] | 65 | 28 | <10 | <10 | <10 | <10 | <10 | fraction unbound (Protein Binding): 0.04; concentration at 4 h ([3]; 4 mg/kg i.v.): 70 ng/g; clearance ([3]; 4 mg/kg i.v.): 10.2 mL/min; AUC(0-t) ([3]; 4 mg/kg i.v., Peg400:Dextrose (2:3 v/v)): 1480 ng·h/mL; Vb ([3]; 4 mg/kg i.v.): 0.65 L; Vc ([3]; 4 mg/kg i.v.): 0.23 L; T1/2α ([3]; 4 mg/kg i.v.): 7.2 min; T1/2β ([3]; 4 mg/kg i.v.): 48 min; solubility (Solubility): 192 µM (≈ 65 µg/mL); CYP2C9 (CYP2C9): <10 % inhibition
